Test results taken from PMC9739180, “Discovery of a Flavonoid FM04 as a Potent Inhibitor to Reverse P-Glycoprotein-Mediated Drug Resistance in Xenografts and Improve Oral Bioavailability of Paclitaxel” (International Journal of Molecular Sciences, 2022).
Where two headings read alike, the source gives them in different places. Each block holds one compound with its values, some of them ahead of it.

Tests used:
P-gp [1] = biological target: T1, P-gp (Homo sapiens, UniProt P08183); experiment: Reversal of P-gp-mediated MDR in LCC6MDR cells (MTS cell viability, 5 days)
Method: To each well of a 96-well plate, 6500 cells of LCC6MDR were seeded in 180 μL supplemented medium. A 10 µL compound (FD18, 14a, FM04 or FM327) at different concentrations (0, 62.5, 125, 250, 500 and 1000 nM) was added to the well. […] The final volume in each well was 200 µL and the 96-well plate was incubated at 37 °C for 5 days. The cell viability was determined using the MTS assay as reported previously. The % of cell survival, IC50 of anticancer drugs towards the LCC6MDR and the EC50 of modulators were analyzed using nonlinear regression in Prism 5.0 (Prism version 5.0, GraphPad software, San Diego, CA, USA).

LCC6 cells = experiment: IC50 of anticancer drugs in wild-type LCC6 with or without FM04; assay type: cell-based, human
Text: Table S1. IC50 of anticancer drugs in LCC6 and LCC6MDR and P-gp modulating activity of FM04.
fold): IC50 of an anticancer drug of LCC6MDR without FM04/IC50 of an anticancer of LCC6 with or without
FM04 or LCC6MDR with FM04. N = 2 - 8 independent experiment. The IC50 values were presented as mean ±
standard error mean. /: not determined.

[2] = Pharmacokinetics of PTX and FM04 after oral co-administration; assay type: in vivo, Balb/c mice; details: mice
Method: Pharmacokinetics (PK) study of PTX or FM04 after their oral co-administration. […] PTX (20 or 70 mg/kg) was orally co-administered with FM04 (0, 22 or 45 mg/kg) to mice, plasma was collected at 30, 60, 120, 240 and 420 min, respectively. […] FM04 (45 or 100 mg/kg) was orally co-administered with PTX (0, 50 or 70 mg/kg) to mice, plasma was collected at 30, 60, 120, 240 and 420 min, respectively. The concentration FM04 at each time point was determined by UPLC-MS/MS Pharmacokinetic parameter AUC was calculated by the pharmacokinetic software-Summit® PK solutions 2.0 (Summit Research Service, Ashland, Wilmington, DE, USA).
PTX drug solution was prepared in 5% Cremophor EL, 5% ethanol and 90% saline on the day of the experiment. PTX + FM04 drug solution was prepared in 7% Cremophor EL, 8% ethanol and 85% saline on the day of the experiment. PTX drug solution or PTX + FM04 mixture drug solution was administered to the Balb/c mice (female, 4–6 week-old) via oral gavage. Blood was collected via cardiac puncture at scheduled time points (10, 30, 60, 120, 240 and 420 min) under deep anesthesia. All animals were terminated at the end of the experiment. Plasma concentrations of FM04 and PTX were detected using UPLC-MS/MS. Plasma concentration–time profiles were analyzed by non-compartmental analysis (NCA). The area under the plasma concentration–time curve by trapezoid rules (AUC) (from 0 to infinity), the terminal half-life (t1/2β), initial half-life (t1/2α), mean residence time (MRT), maximum observed concentration (Cmax) and time to maximum concentration (Tmax) were calculated by PK Solutions 2.0 (Summit Research Service, Ashland, Wilmington, DE, USA).
PTX and its internal standard (IS) separation were performed on Agilent 1290 series UPLC coupled with Agilent 6460 Triple quadrupole. The calibration curve of PTX was constructed by quantifying the known amount of PTX that spiked to blank mice plasma following identical sample preparation. The mass spectrometer was configured in ESI + ionization mode monitoring MRM ion transition of m/z 854 > 286 (PTX) and m/z 882 > 314 (IS). Source parameters were as follows, gas temp (350 °C), gas flow (8 L/min), nebulizer (35 psi) and capillary (4000 V). UPLC chromatographic separation was performed on Waters Acquity UPLC BEH C18 (1.7 µM, 2.1 × 50 mm) with a 5 min gradient elution of 30% acetonitrile with 0.1% formic acid to 76% ACN with 0.1% formic acid. Milli-Q with 0.1% formic acid was used as the aqueous phase. Each separation and re-equilibration were completed in 9 min.
Detection and quantification of FM04 and its internal standard were done by using the UPLC-MS/MS system consist of an Acquity Waters UPLC interfaced with a triple quadrupole mass spectrometer (Micromass model Quattro Ultima) equipped with an electrospray ionization source in positive mode. The desolvation temperature, capillary voltage, cone gas and desolvation gas were 350 °C, 3 Kv, 150 L/h and 600 L/h, respectively. Multiple reaction monitoring (MRM) was set to monitor the transitions from 416 > 239 (FM04) and 423 > 239 (IS). Chromatography separation was done with an Acquity UPLC BEH C8 column (2.1 × 50 mm, 1.7 µM). The mobile phase consisted of methanol + 0.1% formic acid (solvent B) and Milli-Q water + 0.1% formic acid (solvent A). The flow rate was 0.4 mL/min. The initial condition was 90% solvent A and 10% solvent B. After 1 min elution by the initial condition, a linear gradient was performed with solvent B increasing from 10% to 100% for 10 min. Afterwards, the mobile phase was restored to the initial condition for re-equilibration. The total analysis time was 20 min per injection.

P-gp [3] = biological target: T1, P-gp; experiment: Intracellular FM04 level in LCC6MDR and LCC6 cells (P-gp transport substrate test); assay type: cell-based; design: expressed in transfected cells; host or cells: MDA435/LCC6MDR (human melanoma); details: 1-10 µM, LCC6MDR vs LCC6
Method: N = 2–3 independent experiments. […] After incubation, the cells were lysed and spun down. […] N = 2–6 independent experiments. […] A 1% DMSO was a solvent control. […] N = 2–3 independent experiments.
P-gp is a transporter with broad substrate specificity. To explore whether FM04 can be pumped by P-gp and work as a competitive inhibitor to prevent the drug substrate from binding, the following experiment was performed. The intracellular level of FM04 was compared in P-gp overexpressing LCC6MDR cells and non-P-gp parental LCC6 cells after its treatment.

[4] = oral, PTX 20 mg/kg + FM04 45 mg/kg, relative to 20 mg/kg PTX alone
[5] = oral, PTX 70 mg/kg + FM04 22 mg/kg, relative to 70 mg/kg PTX alone
[6] = oral, PTX 70 mg/kg + FM04 45 mg/kg, relative to 70 mg/kg PTX alone

T1 sequence (P08183 whole entry): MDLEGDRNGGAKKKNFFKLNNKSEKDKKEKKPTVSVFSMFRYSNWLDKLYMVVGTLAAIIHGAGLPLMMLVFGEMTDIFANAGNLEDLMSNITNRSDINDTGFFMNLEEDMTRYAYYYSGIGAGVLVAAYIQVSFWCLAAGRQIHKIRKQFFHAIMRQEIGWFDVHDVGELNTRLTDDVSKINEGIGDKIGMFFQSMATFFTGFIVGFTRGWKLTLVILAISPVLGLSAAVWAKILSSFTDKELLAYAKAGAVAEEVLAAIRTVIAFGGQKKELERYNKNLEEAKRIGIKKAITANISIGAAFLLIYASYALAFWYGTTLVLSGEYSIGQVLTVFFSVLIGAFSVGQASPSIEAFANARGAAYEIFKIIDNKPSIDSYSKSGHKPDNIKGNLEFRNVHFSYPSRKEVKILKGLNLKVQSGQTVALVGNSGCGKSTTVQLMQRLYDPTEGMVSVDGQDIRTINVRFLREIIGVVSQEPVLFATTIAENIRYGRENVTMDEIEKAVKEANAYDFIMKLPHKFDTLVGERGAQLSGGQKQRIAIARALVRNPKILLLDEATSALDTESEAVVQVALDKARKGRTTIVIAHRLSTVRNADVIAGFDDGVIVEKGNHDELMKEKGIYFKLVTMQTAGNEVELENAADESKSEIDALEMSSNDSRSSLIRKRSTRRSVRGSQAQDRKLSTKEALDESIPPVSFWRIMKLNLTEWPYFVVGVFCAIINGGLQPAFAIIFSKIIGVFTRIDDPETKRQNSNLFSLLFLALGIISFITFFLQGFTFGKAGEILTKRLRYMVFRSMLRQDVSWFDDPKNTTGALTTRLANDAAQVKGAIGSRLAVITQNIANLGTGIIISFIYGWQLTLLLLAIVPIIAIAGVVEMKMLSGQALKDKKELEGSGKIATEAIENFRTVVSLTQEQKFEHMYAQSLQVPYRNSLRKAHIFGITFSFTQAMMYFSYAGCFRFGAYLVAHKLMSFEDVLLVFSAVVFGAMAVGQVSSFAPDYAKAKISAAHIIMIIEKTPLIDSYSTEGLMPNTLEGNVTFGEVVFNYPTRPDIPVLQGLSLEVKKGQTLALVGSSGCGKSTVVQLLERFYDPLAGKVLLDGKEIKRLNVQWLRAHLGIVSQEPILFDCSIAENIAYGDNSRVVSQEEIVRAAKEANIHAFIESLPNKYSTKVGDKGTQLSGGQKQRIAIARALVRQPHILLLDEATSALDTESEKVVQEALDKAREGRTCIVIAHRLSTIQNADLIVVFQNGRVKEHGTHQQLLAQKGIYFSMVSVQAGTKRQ

- AUC(0-t) ([2]; female, Balb/c, mouse, plasma, po, 100 mg/kg, oral, FM04 100 mg/kg, PTX 0 mg/kg, read-out: FM04 AUC(0-t) (converted)): 1820 ng·h/mL
- Cmax ([2]; female, Balb/c, mouse, plasma, po, 100 mg/kg, oral, FM04 100 mg/kg, PTX 0 mg/kg, read-out: FM04 Cmax): 1020 ng/mL
- Tmax ([2]; female, Balb/c, mouse, plasma, po, 100 mg/kg, oral, FM04 100 mg/kg, PTX 0 mg/kg, read-out: FM04 Tmax (converted)): 30 min
- AUC(0-t) ([2]; female, Balb/c, mouse, plasma, po, oral, FM04 45 mg/kg + PTX 50 mg/kg, read-out: FM04 AUC(0-t) (converted)): 645 ng·h/mL
- Cmax ([2]; female, Balb/c, mouse, plasma, po, oral, FM04 45 mg/kg + PTX 50 mg/kg, read-out: FM04 Cmax): 754 ng/mL
- Tmax ([2]; female, Balb/c, mouse, plasma, po, oral, FM04 45 mg/kg + PTX 50 mg/kg, read-out: FM04 Tmax (converted)): 30 min
- AUC(0-t) ([2]; female, Balb/c, mouse, plasma, po, oral, FM04 45 mg/kg + PTX 70 mg/kg, read-out: FM04 AUC(0-t) (converted)): 740 ng·h/mL
- Cmax ([2]; female, Balb/c, mouse, plasma, po, oral, FM04 45 mg/kg + PTX 70 mg/kg, read-out: FM04 Cmax): 481 ng/mL
- Tmax ([2]; female, Balb/c, mouse, plasma, po, oral, FM04 45 mg/kg + PTX 70 mg/kg, read-out: FM04 Tmax (converted)): 60 min
- concentration at 720 min ([2]; female, Balb/c, mouse, plasma, FM04 100 mg/kg oral alone, at 720 min, read-out: minimum plasma concentration of FM04): 43 ng/mL
- oral absorption of FM04 ([2]; FM04 100 mg/kg oral alone): < 0.005%
- Transport substrate of P-gp (P-gp [3]): not a transport substrate of P-gp
Structure (SMILES): O=c1cc(-c2ccc(OCCOCCNCc3ccccc3)cc2)oc2ccccc12 [FM04, 2-(4-(2-(2-(benzylamino)ethoxy)ethoxy)phenyl)-4H-chromen-4-one]
- EC50 (P-gp [1]): 83 ± 7 nM
- EC50 needed for reversing MDR in LCC6MDR cells: PTX (P-gp [1]): 83 nM
- fold higher potency than FD18 in reversing PTX resistance (P-gp [1]): 1.8 fold
- EC50 (P-gp [1]; EC50 for P-gp modulation, range over PTX reversal and DOX accumulation in LCC6MDR): 64 to 83 nM
- EC50 (P-gp [1]; EC50 for chemosensitizing LCC6MDR towards vinblastine, vincristine, DOX, daunorubicin and mitoxantrone, range over the five drugs): 61 to 153 nM
- EC50 (P-gp [1]; EC50 needed for reversing MDR in LCC6MDR cells: DOX, LCC6MDR): 153 ± 39 nM
- EC50 (P-gp [1]; EC50 needed for reversing MDR in LCC6MDR cells: Daunorubicin, LCC6MDR): 88 ± 52 nM
- EC50 (P-gp [1]; EC50 needed for reversing MDR in LCC6MDR cells: Mitoxantrone, LCC6MDR): 64 ± 27 nM
- EC50 (P-gp [1]; EC50 needed for reversing MDR in LCC6MDR cells: PTX, LCC6MDR, PTX resistance): 83 nM
- EC50 (P-gp [1]; EC50 needed for reversing MDR in LCC6MDR cells: Vinblastine, LCC6MDR): 61 ± 13 nM
- EC50 (P-gp [1]; EC50 needed for reversing MDR in LCC6MDR cells: Vincristine, LCC6MDR): 83 ± 11 nM
- chemosensitization of wild-type LCC6 towards PTX, vinblastine and vincristine (LCC6 cells; FM04 1 μM): did not chemosensitize the wild-type LCC6 cells

Structure (SMILES): CC(=O)O[C@H]1C(=O)[C@@]2(C)[C@H]([C@H](OC(=O)c3ccccc3)[C@]3(O)C[C@H](OC(=O)[C@H](O)[C@@H](NC(=O)c4ccccc4)c4ccccc4)C(C)=C1C3(C)C)[C@]1(OC(C)=O)CO[C@@H]1C[C@@H]2O [PTX, paclitaxel]
- RF, LCC6MDR + 1 μM FM04 (P-gp [1]): 34.1
- RF, LCC6MDR + DMSO (P-gp [1]): 1.0
- IC50 (LCC6 cells; Homo sapiens, LCC-6, wild-type LCC6, no modulator, read-out: IC50 of anticancer drug, LCC6 + DMSO): 2.1 ± 0.5 nM
- RF, LCC6 + DMSO (LCC6 cells; IC50 in LCC6MDR without FM04 / IC50 in LCC6): 61.7
- RF, LCC6 + 1 μM FM04 (LCC6 cells; IC50 in LCC6MDR without FM04 / IC50 in LCC6 with FM04): 43.2
- AUC ([2]; female, Balb/c, mouse, plasma, po, 20 mg/kg, oral, PTX 20 mg/kg + FM04 45 mg/kg): 9400 ng·h/mL
- Cmax ([2]; female, Balb/c, mouse, plasma, po, 20 mg/kg, oral, PTX 20 mg/kg, FM04 0 mg/kg, read-out: PTX Cmax): 134 ng/mL
- AUC ([2]; female, Balb/c, mouse, plasma, po, 20 mg/kg, PTX 20 mg/kg alone): 143 ng·h/mL
- AUC ([2]; female, Balb/c, mouse, plasma, po, 70 mg/kg, oral, PTX 70 mg/kg + FM04 45 mg/kg): 30000 ng·h/mL
- AUC(0-t) ([2]; female, Balb/c, mouse, plasma, po, 70 mg/kg, oral, PTX 70 mg/kg, FM04 0 mg/kg, read-out: PTX AUC(0-t) (converted)): 523 ng·h/mL
- Cmax ([2]; female, Balb/c, mouse, plasma, po, 70 mg/kg, oral, PTX 70 mg/kg, FM04 0 mg/kg, read-out: PTX Cmax): 186 ng/mL
- AUC ([2]; female, Balb/c, mouse, plasma, po, 70 mg/kg, PTX 70 mg/kg alone): 523 ng·h/mL
- AUC(0-t) ([2]; female, Balb/c, mouse, plasma, po, oral, PTX 20 mg/kg + FM04 45 mg/kg, read-out: PTX AUC(0-t) (converted)): 9400 ng·h/mL
- Cmax ([2]; female, Balb/c, mouse, plasma, po, oral, PTX 20 mg/kg + FM04 45 mg/kg, read-out: PTX Cmax): 3510 ng/mL
- AUC ([2]; female, Balb/c, mouse, plasma, po, oral, PTX 70 mg/kg + FM04 22 mg/kg): 15500 ng·h/mL
- AUC(0-t) ([2]; female, Balb/c, mouse, plasma, po, oral, PTX 70 mg/kg + FM04 22 mg/kg, read-out: PTX AUC(0-t) (converted)): 15500 ng·h/mL
- Cmax ([2]; female, Balb/c, mouse, plasma, po, oral, PTX 70 mg/kg + FM04 22 mg/kg, read-out: PTX Cmax): 4950 ng/mL
- AUC(0-t) ([2]; female, Balb/c, mouse, plasma, po, oral, PTX 70 mg/kg + FM04 45 mg/kg, read-out: PTX AUC(0-t) (converted)): 30000 ng·h/mL
- Cmax ([2]; female, Balb/c, mouse, plasma, po, oral, PTX 70 mg/kg + FM04 45 mg/kg, read-out: PTX Cmax): 9760 ng/mL
- Tmax ([2]; female, Balb/c, mouse, plasma, oral, PTX 20 mg/kg + FM04 45 mg/kg, read-out: PTX Tmax (converted)): 120 min
- PTX AUC/Dose fold-change vs PTX alone [2, 4]: 66
- PTX Cmax fold-change vs PTX alone [2, 4]: 26
- PTX AUC/Dose fold-change vs PTX alone [2, 5]: 30
- PTX Cmax fold-change vs PTX alone [2, 5]: 27
- PTX AUC/Dose fold-change vs PTX alone [2, 6]: 57
- PTX Cmax fold-change vs PTX alone [2, 6]: 53
- oral absorption of PTX ([2]; oral PTX 70 mg/kg with FM04 22 mg/kg): 6.6%
- oral absorption of PTX ([2]; oral PTX with FM04 45 mg/kg): 14%
- oral absorption of PTX ([2]; oral PTX without FM04): 0.2%
